In brackets after ≈: the same amount, converted by molar mass. Where two headings read alike, the source gives them in different places.
Test system: single drug resistant strains of M. tuberculosis
Test: microbe, parasite or virus in culture
Format: cell-based
Conditions: for MIC: Mycobacterium tuberculosis

| Structure (SMILES) | susceptibility of singly resistant strains | MIC (read-out: MIC, EMB-R) [µg/mL] | MIC (read-out: MIC, INH-R) [µg/mL] | MIC (read-out: MIC, KM-R) [µg/mL] | MIC (read-out: MIC, RMP-R) [µg/mL] | MIC (read-out: MIC, CS-R) [µg/mL] | MIC (read-out: MIC, PZA-R) [µg/mL] | MIC (read-out: MIC, TAC-R) [µg/mL] |
| --- | --- | --- | --- | --- | --- | --- | --- | --- |
| CCOC(=O)Nc1cc(NC(C)CCCN(CC)CC)c2nc(-c3ccccc3)c(-c3ccccc3)nc2n1 (stereo not shown) [SRI-3072, [8-(4-Diethylamino-1-methyl-butylamino)-2,3-diphenyl-pyrido[2,3-b]pyrazin-6-yl]-carbamic acid ethyl ester] | uniformly susceptible | ≤ 0.1 | 0.78 (≈ 1.48 µM) | ≤ 0.1 | ≤ 0.1 |  |  |  |
| CCOC(=O)Nc1cc2c(c(N)n1)N=C(c1ccccc1)CCN2 [SRI-7614, (1-Amino-8-phenyl-6,7-dihydro-5H-2,5,9-triaza-benzocyclohepten-3-yl)-carbamic acid ethyl ester] | uniformly susceptible | 3.12 (≈ 9.59 µM) | 6.25 (≈ 19.2 µM) | 6.25 (≈ 19.2 µM) | 3.12 (≈ 9.59 µM) | 3.12 (≈ 9.59 µM) | 3.12 (≈ 9.59 µM) | 3.12 (≈ 9.59 µM) |

Reference: US7718651B2, “Inhibitors of FtsZ and uses thereof” (priority 2002, dated 2010)
